Results as given in patent US7658916B2, “Methods of enhancing lysosomal storage disease therapy by modulation of cell surface receptor density” (Genzyme Corporation, priority 2002, dated 2010).
Like-named read-outs stand apart in the source and are kept apart here.

Assays:
L6 myotubes = experiment: Alpha-galactosidase uptake by L6 myotubes in vitro; assay type: cell-based, rat; settings: 5 mM M6P; to the endogenous level
Method: Muscles are the major target tissues for enzyme replacement therapy of Pompe disease due to the lack of acid alpha-glucosidase. To determine if the M6P/IGF-II receptor-mediated lysosomal enzyme uptake pathway can be augmented by insulin/glucose, the effects of insulin/glucose were analyzed on induced muscle cells (myotubes) in vitro. L6 myoblasts (or induced myotubes) and Hep3B cells were cultured in 6-well dishes. Rat L6 myoblasts (ATCC# CRL-1458) were cultured at 37° C. under 5% CO2 in VitaCell DMEM media (ATCC# 30-2002) with 4 mM L-glutamine, 10% fetal bovine serum (Gibco #16000-044) and 1× penicillin/streptomycin. Once confluent, cells were switched to VitaCell DMEM plus 2% horse sera (Gibco# 26050-088) and 1× penicillin/streptomycin. Media were changed every 3 days and at day 9-10, myotubes could be observed as multinuclear tubes. About 30-40% of the myoblasts formed myotubes. Cells were used for uptake assay at day 10. Hep3B cells were grown in MEM-eagle (Gibco# 11960-044) with 10% FBS, 1×NEAA, 1× sodium pyruvate and 1× penicillin/streptomycin.
Before the uptake assay, the cells were washed once with PBS and once with DMEM minus glucose media (Gibco#11966-025), then the cells were starved in 1.5 ml of DMEM minus glucose media for 1 hour at 37° C. […]

[1] = test system: asialoglycoprotein receptors (ASGPR); settings: cited from earlier work
muscle tissues [2] = settings: mouse, in vivo
Method: (§2) To directly evaluate the effects of insulin/glucose on alpha-galactosidase uptake in vivo, normal (129 SV, 3-4 month, male) and Fabry mice (on 129SV background, 3-4 month, male) were used for uptake assays under different conditions.
(§3) Normal mice were fasted overnight from 5 p.m. to 9 a.m. next morning, and then divided into three groups. […] The second group directly received alpha-galactosidase injection (6 mg/kg) through tail vein as bolus injection; the third group was first gavaged with 0.5 ml of 50% glucose followed by subcutaneous injection of insulin (0.25 U) on the upper back 10 minutes later, after another 45 minutes, alpha-galactosidase was injected as for the second group. Two hours after alpha-galactosidase injection, different tissues (heart, diaphragm, tongue, muscle gastrocnemius, muscle vastus laterus, muscle paraspinal) were collected and assayed for alpha-galactosidase activity after homogenization in alpha-galactosidase assay buffer plus 1% of triton and 1× protease inhibitor cocktail.
Here, 4 groups of Fabry mice were used and similarly treated as for the normal mice. […]

muscle tissues [3] = test system: muscle tissues; parameters: species or system normal mice (129 SV); settings: mouse, in vivo, 6 mg/kg
Method: as §2, §3

Hep3B cells = experiment: CEREZYME enzyme uptake by hepatocytes (Hep3B) in vitro; assay type: cell-based; settings: dexamethasone treatment; result in words
Method: The rat alveolar macrophage cell line NR 8383 (ATCC# CRL-2192) were cultured in Kaighn's modified F12K nutrient mixture (Gibco# 21127-002) with 2 mM L-glutamine (Gibco# 25030-081), 15% heat-inactivated fetal bovine serum (FBS) (Gibco# 16000-044) and 1× penicillin/streptomycin. Most of the cells were attached to the dish, with some in suspension. Hep3B cells were grown in MEM-eagle (Gibco# 11960-044) with Earles salts and 10% FBS, 1× non-essential amino acid (NEAA), 1× sodium pyruvate and 1× penicillin/streptomycin. Human liver sinusoidal endothelial cells (LSECS) (ACBRI#-566) were purchased from Applied Cell Biology Research Institute through Cell Systems, Inc. Cells were cultured in CS-C Media (CSC# 4Z0-500) with additional 10% FBS. During passage, the culture dishes or flasks were treated with attachment factor solution (CSC# 4Z0-210). Prior to seeding, the purity of the LSECs was confirmed by immunostaining with anti-VOA Willebrand factor (data not shown). […]
(§1) The lysates were used for glucocerebrosidase assay in duplicate or triplicate with 4-MU-beta-glucoside (Sigma# M-3633) as substrate and with CEREZYME® enzyme as standard. Proteins were quantified using a MicroBCA protein assay kit (Pierce) with BSA as standard. […]

spleen macrophages = experiment: CEREZYME enzyme uptake in vivo by isolated rat spleen macrophages; parameters: species or system Fisher rats
Method: Quantitative analysis of the dexamethasone effects on CEREZYME® enzyme uptake in vivo was performed on macrophage cells isolated from spleens through the attachment method (Gessani S, 2000 #35). Fisher rats (female, 180-200 g) were used and divided into four groups. After dexamethasone (50 μg/rat) pretreatment and CEREZYME® enzyme (or unmodified glucocerebrosidase) injection, rat spleens were excised and cut into small pieces. The total spleen cells were released by pressing between two frosted cover slides, followed by washing with 15 ml of RPMI media containing 10% heat-inactivated FBS. Red blood cells were lysed with red blood cell lysis buffer (Sigma). The rest of the splenocytes were seeded in 150-mm tissue culture dishes and incubated at 37° C. for 1 hour for the attachment isolation of macrophages. 15 ml of media were added to five 150-mm tissue culture dishes as blanks for nonspecific protein binding. After removing the cells in suspension and washing the attached cells 5 times with PBS, the attached cells were lysed in KP buffer by scrapping and assayed for glucocerebrosidase activity and protein content. The average of protein content of the blank dishes was subtracted from each cell sample. For dose response of CEREZYME® enzyme to dexamethasone, rats pretreated with dexamethasone were injected with different doses of CEREZYME® enzyme as for the control groups without dexamethasone pretreatment. Attached cells (>90% spleen macrophages) were isolated for glucocerebrosidase assay as described above. […] The absolute enzyme activity, however, was ˜220% of the control without dexamethasone treatment (FIG. 4A). The dexamethasone effects were also tested at other CEREZYME® enzyme doses at 7 U/kg and 72 U/kg respectively, which are either below or above the saturation levels (Mistry, 1996 #10). As is shown in FIG. 4B, at both doses, the dexamethasone effects were about the same and increased CEREZYME® enzyme uptake to a similar level as with 18 U/kg of CEREZYME® enzyme, namely, about 3-fold increase after dosage correction. The absolute CEREZYME® enzyme activity was ˜250% of the control sample at 72 U/kg.

[4] = test system: rat alveolar macrophage cell line NR 8383; experiment: CEREZYME enzyme uptake by rat alveolar macrophage cells in vitro; assay type: cell-based
Method: The rat alveolar macrophage cell line NR 8383 (ATCC# CRL-2192) were cultured in Kaighn's modified F12K nutrient mixture (Gibco# 21127-002) with 2 mM L-glutamine (Gibco# 25030-081), 15% heat-inactivated fetal bovine serum (FBS) (Gibco# 16000-044) and 1× penicillin/streptomycin. Most of the cells were attached to the dish, with some in suspension. Hep3B cells were grown in MEM-eagle (Gibco# 11960-044) with Earles salts and 10% FBS, 1× non-essential amino acid (NEAA), 1× sodium pyruvate and 1× penicillin/streptomycin. Human liver sinusoidal endothelial cells (LSECS) (ACBRI#-566) were purchased from Applied Cell Biology Research Institute through Cell Systems, Inc. Cells were cultured in CS-C Media (CSC# 4Z0-500) with additional 10% FBS. During passage, the culture dishes or flasks were treated with attachment factor solution (CSC# 4Z0-210). Prior to seeding, the purity of the LSECs was confirmed by immunostaining with anti-VOA Willebrand factor (data not shown).
For dexamethasone or other drug treatment, the cells were incubated with the drugs under various conditions as indicated in each figure legend (FIGS. 1A-F). […]
as §1

[5] = test system: spleen and bone marrow tissues; experiment: Glucocerebrosidase activity in rat spleen and bone marrow after CEREZYME enzyme injection; assay type: in vivo, Fisher rats; settings: rats, 100 μg dexamethasone, 2.5 U CEREZYME; equals level of non-treated rats given 10 U
Method: To assess the effect of dexamethasone treatment on CEREZYME® enzyme uptake by liver macrophage (Kupffer cells) in vivo, Fisher rats (female, ˜130 g) were divided into four groups (n=3). The first and second groups of rats only received vehicle PBS without dexamethasone, and the third and fourth groups were treated with water-soluble dexamethasone sodium phosphate (American Reagent Laboratories Inc.) at 10 μg and 100 μg (diluted into 200 μl PBS) per rat through intraperitoneal injection. Four doses of dexamethasone were given over two consecutive days, one dose in early morning and one dose in late afternoon on each day. On the third day, CEREZYME® enzyme at 2.5 U per rat (˜18 U/kg) diluted in PBS was administrated into the second, third and fourth groups of rats through tail vein bolus injection. The first group was used as negative control.
Direct measurement of glucocerebrosidase activity in spleen, liver and bone marrow tissues after CEREZYME® enzyme uptake was also assessed in another set of experiments. Five groups of rats were used (n=3). The first four groups were treated in the same manner as described above, whereas the fifth group of rats was not treated with dexamethasone but received 10 U of CEREZYME® enzyme per rat and used as positive controls. […] The supernatants were saved and measured for glucocerebrosidase activity and normalized to protein content as described above.

mannose receptor = settings: cited from earlier work

## O=P(O)(O)OC[C@H]1OC(O)[C@@H](O)[C@@H](O)[C@@H]1O (stereo partly drawn) [M6P]
L6 myotubes
  inhibition of alpha-galactosidase uptake by myotubes: entire alpha-galactosidase uptake can be inhibited

## Interferon alpha
[1]; after 3-6 hour treatment
  inhibition of binding and uptake of asialoglycoproteins: 50%
[1]; after 24 hour treatment
  inhibition of binding and uptake of asialoglycoproteins: ~100%

## alpha-galactosidase: recombinant human alpha-galactosidase, used as a model M6P-bearing lysosomal enzyme
Muscle tissues [2]
  alpha-galactosidase activity in tissues relative to wildtype tissues: about similar levels
  increase in alpha-galactosidase activity in heart over wildtype tissue: more than 10 fold
Muscle tissues [3]
  alpha-galactosidase activity in muscle tissues after injection alone: increased its activity in all the muscle tissues

## C[C@@H]1C[C@H]2[C@@H]3CCC4=CC(=O)C=C[C@]4(C)[C@@]3(F)[C@@H](O)C[C@]2(C)[C@@]1(O)C(=O)CO [dexamethasone]
Hep3B cells
  effect on CEREZYME enzyme uptake by hepatocytes: did not significantly enhance
Spleen macrophages; CEREZYME 7 U/kg and 72 U/kg
  increase in CEREZYME enzyme uptake by spleen macrophages after dosage correction: about 3 fold
Spleen macrophages; CEREZYME 18 U/kg
  absolute enzyme activity in spleen macrophages, % of control without dexamethasone: ~220%
Spleen macrophages; CEREZYME 72 U/kg
  absolute CEREZYME enzyme activity in spleen macrophages, % of control sample: ~250%
Spleen macrophages; dexamethasone 50 μg/rat, CEREZYME 18 U/kg
  increase in CEREZYME enzyme uptake by spleen macrophages after normalizing the dose contribution: at least 3 fold
[4]; after two days, separate experiment
  increase of CEREZYME enzyme uptake by rat alveolar macrophage cells: 250-350%
[5]
  increase of total glucocerebrosidase activity in spleen: 4 fold

## prostaglandin E
Mannose receptor
  enhancement of mannose receptor cell surface expression on macrophages: 4-6 fold

B1: mouse interferon-gamma: mouse interferon-γ, species-specific down-regulator of mannose receptor expression on macrophage cells (protein, UniProt P01580 23-155, looked up)
Interferon gamma: HGTVIESLESLNNYFNSSGIDVEEKSLFLDIWRNWQKDGDMKILQSQIISFYLRLFEVLKDNQAISNNISVIESHLITTFFSNSKAKKDAFMSIAKFEVNNPQVQRQAFNELIRVVHQLLPESSLRKRKRSRC
[4]; result in words
  effect on CEREZYME enzyme uptake by macrophage cells: did not enhance or inhibit

B2: interleukin-4: cytokine shown to enhance mannose receptor cell surface expression on macrophages (protein, UniProt P05112 25-153, looked up)
Interleukin-4: HKCDITLQEIIKTLNSLTEQKTLCTELTVTDIFAASKNTTEKETFCRAATVLRQFYSHHEKDTRCLGATAQQFHRHKQLIRFLKRLDRNLWGLAGLNSCPVKEANQSTLENFLERLKTIMREKYSKCSS
Mannose receptor
  enhancement of mannose receptor cell surface expression on macrophages: 10-15 fold

B3: interferon-gamma: cytokine that down-regulates mannose receptors and asialoglycoprotein receptors (protein, UniProt P01579 24-161, looked up)
Interferon gamma: QDPYVKEAENLKKYFNAGHSDVADNGTLFLGILKNWKEESDRKIMQSQIVSFYFKLFKNFKDDQSIQKSVETIKEDMNVKFFNSNKKKRDDFEKLTNYSVTDLNVQRKAIHELIQVMAELSPAAKTGKRKRSQMLFRG
[1]; after 3-6 hour treatment
  inhibition of binding and uptake of asialoglycoproteins: 50%
[1]; after 24 hour treatment
  inhibition of binding and uptake of asialoglycoproteins: ~100%
